Here are results for one compound from publication PMC10266688 (PLOS ONE, 2023).

In the experiment the test system is GAPDH, RPN2 and USP14. The experiment can be described thus: CETSA control proteins, SKOV3 cells. It is filed as binding, human. Conditions: SKOV3, 10 μM, 30 min. How it is done:
Cells were incubated in a thermal cycler (Biorad IQ5 Cycler) over a gradient of temperatures for 4 min, followed by incubation at 25°C for 3 min, then snap-frozen in liquid nitrogen and subjected to three freeze–thaw cycles. Samples were briefly vortexed and centrifuged at 16,000 x g for 20 min at 4°C. Cleared cell lysates were resolved in SDS–PAGE followed by immunoblotting for RPN13, GAPDH, RPN2 and USP14.
Cellular Thermal Shift Assay (CETSA) assesses thermal stabilization of proteins upon ligand binding and is used extensively to detect drug interactions by implementing a thermal shift in the cellular context. The assay involves drug treatment of cells, heating to denature and precipitate proteins in a thermocycler with a specified gradient of temperatures, cell lysis by freeze/thaw cycles, and the separation of cell debris and aggregates from the soluble protein fraction by centrifugation. Whereas unbound proteins denature and precipitate at elevated temperatures, ligand-bound proteins remain in solution. The proportion of individual proteins remaining in solution can be detected by quantitative Western blotting. […]. There was no impact on other control proteins tested, including a house keeping protein (GAPDH) and proteasome subunits (RPN2 and USP14). […]
Resuspended cells were aliquoted into PCR strips. […]

Take `N#Cc1ccc(/C=C2/C(=O)/C(=C/c3ccc(C#N)cc3)C23CCNCC3)cc1` [Up284]: the “thermal stabilization of GAPDH, RPN2 and USP14” value is recorded as “no impact”.
